Measurements from patent US9326515B2, “Fungicidal 3-[(1,3-thiazol-4-ylmethoxyimino)(phenyl)methyl]-2-substituted-1,2,4-oxadiazol-5(2H)-one derivatives” (BAYER INTELLECTUAL PROPERTY GMBH, priority 2011, dated 2016).

Key:
[1] = test system: Phytophthora infestans; assay type: in vivo; settings: 100 ppm of active ingredient, spray on young tomato plants, inoculated one day after treatment, evaluated 7 days after inoculation
[2] = test system: Phytophthora infestans; assay type: in vivo; settings: 500 ppm, spray on tomato plants, contaminated after 24 hours, grading 5 days after contamination vs control plants
[3] = test system: Pyrenophora teres; test: Example E: in vivo preventive test on Pyrenophora teres (net blotch on barley); settings: 500 ppm, spray on barley plants, contaminated after 24 hours, grading 14 days after contamination vs control plants
Method: (§1) The active ingredients tested are prepared by homogenization in a mixture of acetone/tween/DMSO, and then diluted with water to obtain the desired active material concentration.
Barley plants (“Plaisant” variety), sown in starter cups on a 50/50 peat soil-pozzolana substrate and grown at 22° C., are treated at the 1-leaf stage (10 cm height) by spraying with the active ingredient prepared as described above. Plants, used as controls, are treated with the mixture of acetone/tween/DMSO/water not containing the active material.
After 24 hours, the plants are contaminated by spraying the leaves with an aqueous suspension of Pyrenophora teres spores (12 000 spores per ml). The spores are collected from a 12-day-old culture. The contaminated barley plants are incubated for 48 hours at 20° C. and at 100% relative humidity, and then for 12 days at 20° C. at 70-80% relative humidity.
Grading (% of efficacy) is carried out 14 days after the contamination, in comparison with the control plants.
(§2) Under these conditions, good (at least 70%) or total protection is observed at a dose of 500 ppm with the following compounds: […]

[4] = test system: Sphaerotheca fuliginea; test: Example D: in vivo preventive test on Sphaerotheca fuliginea (powdery mildew on cucurbits); settings: 500 ppm, spray on gherkin plants, contaminated after 24 hours, grading 12 days after contamination vs control plants
Method: The active ingredients tested are prepared by homogenization in a mixture of acetone/tween/DMSO and then diluted with water to obtain the desired active material concentration.
Gherkin plants (“Vert petit de Paris” variety), sown in starter cups on a 50/50 peat soil-pozzolana substrate and grown at 24° C., are treated at the Z11 cotyledon stage by spraying with the active ingredient prepared as described above. Plants, used as controls, are treated with the mixture of acetone/tween/DMSO/water not containing the active material.
After 24 hours, the plants are contaminated by spraying the cotyledons with an aqueous suspension of Sphaerotheca fuliginea spores (100 000 spores per ml). The spores are collected from infected plants. The contaminated gherkin plants are incubated at about 20° C. and at 70-80% relative humidity.
Grading (% of efficacy) is carried out 12 days after the contamination, in comparison with the control plants.
as §2

[5] = pH 2.7
[6] = test system: Septoria tritici; test: Example G: in vivo preventive test on Septoria tritici (leaf spot on wheat); settings: 500 ppm, spray on wheat plants, contaminated after 24 hours, grading 24 days after contamination vs control plants
Method: as §1
Wheat plants (“Scipion” variety), sown in starter cups on a 50/50 peat soil-pozzolana substrate and grown at 22° C., are treated at the 1-leaf stage (10 cm height) by spraying with the active ingredient prepared as described above. Plants, used as controls, are treated with the mixture of acetone/tween/DMSO/water not containing the active material.
After 24 hours, the plants are contaminated by spraying the leaves with an aqueous suspension of cryopreserved Septoria tritici spores (500 000 spores per ml). The contaminated wheat plants are incubated for 72 hours at 18° C. and at 100% relative humidity, and then for 21 days at 90% relative humidity.
Grading (% of efficacy) is carried out 24 days after the contamination, in comparison with the control plants.
as §2

[7] = test system: Alternaria brassicae; test: Example B: in vivo preventive test on Alternaria brassicae (leaf spot on radish); settings: 500 ppm, spray on radish plants, contaminated after 24 hours, grading 6 days after contamination vs control plants
Method: as §1
Radish plants (“Pernod Clair” variety), sown in starter cups on a 50/50 peat soil-pozzolana substrate and grown at 17° C., are treated at the cotyledon stage by spraying with the active ingredient prepared as described above. Plants, used as controls, are treated with the mixture of acetone/tween/DMSO/water not containing the active material.
After 24 hours, the plants are contaminated by spraying the cotyledons with an aqueous suspension of Alternaria brassicae spores (50 000 spores per ml). The spores are collected from a 15-day-old culture. The contaminated radish plants are incubated at 20° C. and at 100% relative humidity.
Grading (% of efficacy) is carried out 6 days after the contamination, in comparison with the control plants.
as §2

Structure (SMILES)	Eff. % [1] [%]	% efficacy [2] [%]	% efficacy [3] [%]	% efficacy [4] [%]	LogP [5]	% efficacy [6] [%]	% efficacy [7] [%]
Cn1oc(=O)nc1C(=NOCc1csc(NC(=O)OCCOc2ccccc2)n1)c1ccccc1 [Example 21]	92	98	80	75	3.19	75	–
CC(COc1ccccc1)OC(=O)Nc1nc(CON=C(c2ccccc2)c2nc(=O)on2C)cs1 (centres unmarked) [Example 28]	92	97	85	–	3.46	75	–
COc1cccc(/C(=N/OCc2csc(NC(=O)C3CCc4ccccc4O3)n2)c2nc(=O)on2C)c1 (racemic) [Example 35]	–	90	–	–	3.44	–	100
